Test results published in US11878972B2, “Treatment of neurological disorders” (TORQUR AG, priority 2016, dated 2024).
Read-outs that look alike come from different tables or passages of the source.

Experiments:
Tsc1GFAP knockout mice = test: Electrographic seizures in Tsc1 GFAP conditional knockout mice
Protocol: Tsc1 mice belonging to either sex were acclimated to the environment, examined, handled, and weighed prior to initiation of the study to assure adequate health and suitability and to minimize non-specific stress associated with human handling. During the course of the study, 12/12 light/dark cycles were maintained. The room temperature was maintained between 20 and 23° C. with a relative humidity maintained around 50%. Food and water were provided ad libitum for the duration of the study. Each mouse was randomly assigned to designated treatment groups. The dosing was performed during the animals' light cycle phase.
Aseptic technique was used throughout the surgical procedures described below. […] Adequate plane of anesthesia was insured by the lack of a withdrawal response to toe pinch and a visible change in the breathing rate. The mouse head was immobilized in a stereotaxic frame with a nose piece that supplied the anesthetic continuously. Ophthalmic ointment was applied to the eyes to prevent drying of the cornea. […]
EEG was recorded using 10× or 100× gain pre-amplifiers. […]
Simultaneously, videographic recording was made through this period to provide a data stream for behavioral evaluation of the mice as needed. After the recording period was completed, individual EEG traces were evaluated for aberrant EEG activity. […]

[1] = PK in Sprague Dawley (SD) rats; assay type: in vivo, rat
Protocol: A single oral administration of cpd. 3, 10 mg/kg was given to female SD rats in a vehicle consisting of DMSO/HPBCD 20% (10/90). Animals were housed in controlled environment and enclosures provided sterile and adequate space with bedding material, food and water, environmental and social enrichment (group housing). Rats were randomized according to their individual body weight, treated and blood, brain and liver were collected and snap frozen at the following time points: 0.5, 2, 4 and 8 hours. Blood (approximately 500-700 μL, collected via cardiac puncture under anesthesia) was immediately transferred into tubes containing lithium-heparin as anticoagulant (Ref: T MLH, Venoject®, Terumo). Tubes were centrifuged at 1,300 g for 10 minutes at +4° C. The resulting plasma was collected and snap frozen in liquid nitrogen and stored at −80° C. until analysis.
Compound concentrations were detected by HPLC-MS/MS. The calibration curves were drawn using standards of known concentrations.

[2] = female, Sprague-Dawley, plasma, rat, po, 10 mg/kg, single

In the case of `Nc1cc(C(F)F)c(-c2nc(N3C4CCC3COC4)nc(N3C4CCC3COC4)n2)cn1` [Compound 3, 5-(4-(3-oxa-8-azabicyclo[3.2.1]octan-8-yl)-6-(3-oxa-8-azabicyclo[3.2.1]octan-8-yl)-1,3,5-triazin-2-yl)-4-(difluoromethyl)pyridin-2-amine], the Body weight (Tsc1GFAP knockout mice; TSC1 GFAP mice, during treatment) is reported as “higher towards the end of the study”, the “effect on spontaneous electrographic seizures” value (Tsc1GFAP knockout mice; Tsc1 GFAP mice, chronic treatment) is reported as “strongly reduce spontaneous seizures” and the oral bioavailability ([1]; SD rats, single oral 10 mg/kg) is reported as “good oral bioavailability”. The “penetration into the brain” value ([1]; SD rats, single oral 10 mg/kg) was “excellent penetration into the brain”, the Tmax ([1]; female, Sprague-Dawley, brain, rat, po, 10 mg/kg, single, read-out: Brain Tmax) was 30 min and the AUC [1, 2] was 400 ng·h/mL. The Cmax [1, 2] was 1400 ng/mL, the Tmax ([1]; female, Sprague-Dawley, plasma, rat, po, 10 mg/kg, single, read-out: Plasma Tmax) was 30 min and the “Brain AUC” value ([1]; rat, po, 10 mg/kg, single) was 2500 ng·h/mL. For the same molecule, the “Brain Cmax” value ([1]; rat, po, 10 mg/kg, single) was 1.3 µg/g.
